How the values were obtained:
Type in all cases: cell-based
human TLR7 = molecular target: T1, human TLR7 (Homo sapiens, UniProt Q9NYK1); experiment: TLR7 inhibition reporter assay (HEK-Blue cells, SEAP reporter, gardiquimod stimulation); details: HEK-Blue cells overexpressing human TLR7, SEAP reporter, gardiquimod 7.5 μM
T1 construct: host or cells: HEK-Blue cells
T1 sequence (Q9NYK1 27-1049): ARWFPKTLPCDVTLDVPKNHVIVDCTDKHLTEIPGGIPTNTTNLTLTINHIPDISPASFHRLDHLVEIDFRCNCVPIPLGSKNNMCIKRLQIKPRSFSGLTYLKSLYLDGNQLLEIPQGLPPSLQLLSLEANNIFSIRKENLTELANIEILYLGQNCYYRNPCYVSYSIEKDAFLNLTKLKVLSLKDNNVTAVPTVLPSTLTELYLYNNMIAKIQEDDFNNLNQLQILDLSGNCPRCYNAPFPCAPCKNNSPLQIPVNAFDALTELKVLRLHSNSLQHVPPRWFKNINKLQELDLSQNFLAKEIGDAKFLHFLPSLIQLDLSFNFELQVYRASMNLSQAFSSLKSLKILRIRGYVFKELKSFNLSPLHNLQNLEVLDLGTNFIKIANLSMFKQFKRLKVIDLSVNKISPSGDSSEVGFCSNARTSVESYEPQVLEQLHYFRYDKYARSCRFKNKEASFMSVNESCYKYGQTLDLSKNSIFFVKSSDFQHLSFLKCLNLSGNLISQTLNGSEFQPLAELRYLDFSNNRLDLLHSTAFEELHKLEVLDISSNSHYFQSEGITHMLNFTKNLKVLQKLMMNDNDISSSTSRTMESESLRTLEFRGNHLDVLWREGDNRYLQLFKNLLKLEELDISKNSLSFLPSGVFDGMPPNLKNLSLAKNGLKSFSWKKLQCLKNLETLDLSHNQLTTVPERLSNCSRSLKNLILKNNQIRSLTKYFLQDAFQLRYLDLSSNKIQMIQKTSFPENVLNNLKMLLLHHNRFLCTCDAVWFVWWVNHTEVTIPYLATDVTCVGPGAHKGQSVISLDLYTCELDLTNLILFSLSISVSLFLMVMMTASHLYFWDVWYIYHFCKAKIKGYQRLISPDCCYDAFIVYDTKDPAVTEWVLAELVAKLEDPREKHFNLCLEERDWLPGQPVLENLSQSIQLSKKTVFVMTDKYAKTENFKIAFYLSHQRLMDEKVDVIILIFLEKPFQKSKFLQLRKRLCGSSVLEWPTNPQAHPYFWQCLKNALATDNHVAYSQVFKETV
Description: (§1) TLR7/8/9 Inhibition Reporter Assays
(§2) HEK-Blue™-cells (Invivogen) overexpressing human TLR7, TLR8 or TLR9 receptors were used for screening inhibitors of these receptors using an inducible SEAP (secreted embryonic alkaline phosphatase) reporter gene under the control of the IFN-β minimal promoter fused to five NF-κB and AP-1-binding sites. Briefly, cells are seeded into Greiner 384 well plates (15000 cells per well for TLR7, 20,000 for TLR8 and 25,000 for TLR9) and then treated with test compounds in DMSO to yield a final dose response concentration range of 0.05 nM-50 μM. After a 30 minute compound pre-treatment at room temperature, the cells are then stimulated with a TLR7 ligand (gardiquimod at a final concentration of 7.5 μM), TLR8 ligand (R848 at a final concentration of 15.9 μM) or TLR9 ligand (ODN2006 at a final concentration of 5 nM) to activate NF-κB and AP-1 which induce the production of SLA After a 22 hour incubation at 37° C., […], SEAP levels are determined with the addition of HEK-Blue™ Detection reagent (Invivogen), a cell culture medium that allows for detection of SLAP, according to manufacturer's specifications. The percent inhibition is determined as the % reduction in the HEK-Blue signal present in wells treated with agonist plus DMSO alone compared to wells treated with a known inhibitor.

human TLR8 = molecular target: T2, human TLR8 (Homo sapiens, UniProt Q9NR97); experiment: TLR8 inhibition reporter assay (HEK-Blue cells, SEAP reporter, R848 stimulation); details: HEK-Blue cells overexpressing human TLR8, SEAP reporter, R848 15.9 μM
T2 construct: host or cells: HEK-Blue cells
T2 sequence (Q9NR97 27-1041): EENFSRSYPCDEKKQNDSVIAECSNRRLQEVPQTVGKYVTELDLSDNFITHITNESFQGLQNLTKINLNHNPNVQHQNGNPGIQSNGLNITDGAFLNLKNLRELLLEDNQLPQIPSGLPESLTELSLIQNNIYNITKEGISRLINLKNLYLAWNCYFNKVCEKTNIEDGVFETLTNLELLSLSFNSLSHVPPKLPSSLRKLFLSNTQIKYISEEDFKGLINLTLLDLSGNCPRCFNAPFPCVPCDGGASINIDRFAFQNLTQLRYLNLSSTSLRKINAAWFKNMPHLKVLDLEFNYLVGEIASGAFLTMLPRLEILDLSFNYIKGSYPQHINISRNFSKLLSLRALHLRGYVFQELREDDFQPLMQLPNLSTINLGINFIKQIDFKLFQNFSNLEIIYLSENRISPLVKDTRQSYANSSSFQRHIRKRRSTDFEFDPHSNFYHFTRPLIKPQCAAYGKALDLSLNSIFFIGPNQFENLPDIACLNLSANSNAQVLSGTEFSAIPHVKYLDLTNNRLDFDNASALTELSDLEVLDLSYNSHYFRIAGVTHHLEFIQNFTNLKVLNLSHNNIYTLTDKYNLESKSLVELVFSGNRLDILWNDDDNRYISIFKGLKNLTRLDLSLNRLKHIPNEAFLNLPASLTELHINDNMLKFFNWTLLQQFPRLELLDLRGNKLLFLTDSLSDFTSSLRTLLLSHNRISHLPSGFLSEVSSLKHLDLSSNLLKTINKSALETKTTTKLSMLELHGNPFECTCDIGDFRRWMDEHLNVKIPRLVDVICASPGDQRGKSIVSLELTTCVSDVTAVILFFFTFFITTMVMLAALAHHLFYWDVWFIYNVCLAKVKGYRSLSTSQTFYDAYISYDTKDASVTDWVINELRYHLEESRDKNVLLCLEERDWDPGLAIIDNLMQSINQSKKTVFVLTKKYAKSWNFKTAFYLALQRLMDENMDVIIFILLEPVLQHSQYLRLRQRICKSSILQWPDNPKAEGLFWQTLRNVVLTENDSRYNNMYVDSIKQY
Description: as §1, §2

human TLR9 = molecular target: T3, human TLR9 (Homo sapiens, UniProt Q9NR96); experiment: TLR9 inhibition reporter assay (HEK-Blue cells, SEAP reporter, ODN2006 stimulation); details: HEK-Blue cells overexpressing human TLR9, SEAP reporter, ODN2006 5 nM
T3 construct: host or cells: HEK-Blue cells
T3 sequence (Q9NR96 26-1032): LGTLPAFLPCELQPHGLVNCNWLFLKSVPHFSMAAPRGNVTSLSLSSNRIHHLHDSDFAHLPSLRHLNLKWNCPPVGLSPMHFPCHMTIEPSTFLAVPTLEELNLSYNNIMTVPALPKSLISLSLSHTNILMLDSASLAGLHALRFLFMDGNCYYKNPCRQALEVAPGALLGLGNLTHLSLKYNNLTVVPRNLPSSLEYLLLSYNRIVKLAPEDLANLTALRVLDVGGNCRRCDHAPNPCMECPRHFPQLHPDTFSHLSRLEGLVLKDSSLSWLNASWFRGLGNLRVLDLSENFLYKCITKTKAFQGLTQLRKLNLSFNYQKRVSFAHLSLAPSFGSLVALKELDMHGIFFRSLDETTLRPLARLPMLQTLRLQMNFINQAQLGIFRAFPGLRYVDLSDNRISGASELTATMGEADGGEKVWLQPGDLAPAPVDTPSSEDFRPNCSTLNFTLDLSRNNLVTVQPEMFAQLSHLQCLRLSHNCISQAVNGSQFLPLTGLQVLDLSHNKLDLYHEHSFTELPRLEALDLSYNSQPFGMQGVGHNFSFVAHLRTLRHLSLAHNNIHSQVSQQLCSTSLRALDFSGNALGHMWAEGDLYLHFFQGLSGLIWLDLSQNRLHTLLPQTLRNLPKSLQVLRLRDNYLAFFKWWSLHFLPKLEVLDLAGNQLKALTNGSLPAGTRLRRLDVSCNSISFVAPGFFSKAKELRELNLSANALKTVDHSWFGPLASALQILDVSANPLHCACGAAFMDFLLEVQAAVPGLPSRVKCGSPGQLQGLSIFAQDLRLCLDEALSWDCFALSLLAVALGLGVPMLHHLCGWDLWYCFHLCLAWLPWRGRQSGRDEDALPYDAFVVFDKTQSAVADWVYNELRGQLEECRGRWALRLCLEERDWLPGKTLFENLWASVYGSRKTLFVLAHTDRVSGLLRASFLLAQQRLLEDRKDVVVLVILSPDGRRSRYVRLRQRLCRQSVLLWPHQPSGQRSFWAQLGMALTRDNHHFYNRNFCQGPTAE
Description: as §1, §2

Row | Structure (SMILES) | IC50 (human TLR7) [nM] | IC50 (human TLR8) [nM] | IC50 (human TLR9) [nM]
1 | COc1c(C)c(-c2[nH]nc(-c3ccc(C4CCN(CC5CCOCC5)CC4)cn3)c2C(C)C)cn2ncnc12 [Example 388] | 22.4 | 37.4 | 16100
2 | COc1cc(-c2[nH]nc(-c3cnc(C4CCN(CC5CCOCC5)CC4)cn3)c2C(C)C)cn2ncnc12 [Example 376] | 4.54 | 2.8 | 6300
3 | CCC(CC)CN1CCC(NC(=O)c2n[nH]c(-c3cc(C)c4ncnn4c3)c2C(C)C)CC1 [Example 79] | 2.29 | 9.23 | 4120
4 | Cc1cc(-c2[nH]nc(C(=O)N[C@H]3CCCN(C(C)C)C3)c2C(C)C)cn2ncnc12 [Example 163] | 1.59 | 20.6 | 9400
5 | CNC1CCC(c2n[nH]c(-c3cc(C)c4ncnn4c3)c2C(C)C)CC1 (single isomer, unassigned) [Example 294] | 7.97 | 0.42 | 8990
6 | Cc1cc(-c2[nH]nc(C(=O)NCC3CN(CC(C)(C)O)CCO3)c2C(C)C)cn2ncnc12 (centres unmarked) [Example 143] | 5.34 | 19.6 | 9280
7 | COc1cc(-c2[nH]nc(-c3ccc(C4CCN(CC(=O)N(C)C)CC4)cn3)c2C(C)C)cn2ncnc12 [Example 389, 2-(4-(6-(4-isopropyl-5-(8-methoxy-[1,2,4]triazolo[1,5-a]pyridin-6-yl)-1H-pyrazol-3-yl)pyridin-3-yl)piperidin-1-yl)-N,N-dimethylacetamide] | 50.3 | 168 | 37100
8 | Cc1cc(-c2[nH]nc(-c3nc4c(s3)CN(C(=O)C[C@H](C)O)CC4)c2C(C)C)cn2ncnc12 [Example 269] | 4.31 | 2.55 | 6280
9 | Cc1cc(-c2[nH]nc(-c3ccc(NC(C)C)cc3)c2C(C)C)cn2ncnc12 [Example 244] | 44 | 17.5 | 25300
10 | Cc1cc(-c2[nH]nc(C(=O)NC3CCN(C4CCOCC4)CC3)c2C(C)C)cn2ncnc12 [Example 153] | 27.8 | 6.62 | 22300
11 | COc1cc(-c2[nH]nc(-c3cnc(C4CCN(C5CCC5)CC4)cn3)c2C(C)C)cn2ncnc12 [Example 387] | 25.2 | 43.9 | 11500
12 | Cc1cc(-c2[nH]nc(C(=O)N3CC[C@@H](N(C)C)C3)c2C(C)C)cn2ncnc12 [Example 18] | 5.69 | 2.57 | 3740
13 | Cc1cc(-c2[nH]nc(C(=O)N[C@@H]3CCCN(C)C3)c2C(C)C)cn2ncnc12 [Example 160] | 0.61 | 0.06 | 5300
14 | COc1cc(-c2[nH]nc(-c3ccc(C4CCN(C(C)C)CC4)cn3)c2C(C)C)cn2ncnc12 [Example 350] | 8.11 | 0.12 | 21700
15 | Cc1cc(-c2[nH]nc(C(=O)N3CC[C@H](N(C)C)C3)c2C(C)C)cn2ncnc12 [Example 22] | 1.23 | 0.9 | 4850
16 | Cc1cc(-c2[nH]nc(-c3ccc(N(C)C)nc3)c2C(C)C)cn2ncnc12 [Example 237] | 4.87 | 0.29 | 5490
17 | COc1cc(-c2[nH]nc(-c3ccc(C4CCN(CC(C)(C)O)CC4)cn3)c2C(C)C)cn2ncnc12 [Example 391] | 102 | 118 | > 50000
18 | Cc1cc(-c2[nH]nc(-c3cncc(N)c3)c2C(C)C)cn2ncnc12 [Example 225] | 2.56 | 3.94 | 5490
19 | Cc1cc(-c2[nH]nc(-c3ncc(C4CCN(C(C)C(C)C)CC4)cn3)c2C(C)C)cn2ncnc12 (centres unmarked) [Example 372] | 10.7 | 2.49 | 8880
20 | CCC(C)N1CCC(NC(=O)c2n[nH]c(-c3cc(C)c4ncnn4c3)c2C(C)C)CC1 (centres unmarked) [Example 152] | 13.7 | 31.6 | 20900
21 | Cc1cc(-c2[nH]nc(-c3nc4c(s3)CN(C(=O)CN(C)C)CC4)c2C(C)C)cn2ncnc12 [Example 270] | 8.99 | 14 | 3460
22 | Cc1cc(-c2[nH]nc(-c3nc4c(s3)CN(CC(C)C)CC4)c2C(C)C)cn2ncnc12 [Example 255] | 6.86 | 4.88 | 15100
23 | Cc1cc(-c2[nH]nc(C(=O)NCC3CCCCN3)c2C(C)C)cn2ncnc12 (centres unmarked) [Example 56] | 4.36 | 3.43 | –

Source: patent publication US20230117470A1, “SUBSTITUTED PYRAZOLE COMPOUNDS AS TOLL RECEPTOR INHIBITORS” (BRISTOL-MYERS SQUIBB COMPANY, priority 2019, published 2023)
